Measurements published in patent publication US20150352108A1, “AMINO-PYRIMIDINE COMPOUNDS AS INHIBITORS OF TBK1 AND/OR IKK EPSILON” (Alzheimer's Institute of America, priority 2009, published 2015).

Assays:
TBK1 = target: T1, TBK1 (Homo sapiens, UniProt Q9UHD2); assay: In-vitro TBK1 kinase assay ([γ33]ATP filter-plate); format: biochemical; conditions: text bins; read-out: IC50 for inhibition of the kinase activity of TBK1
T1 construct: His-tag; made in house; host or cells: Sf9 insect cells
T1 sequence (Q9UHD2 1-729): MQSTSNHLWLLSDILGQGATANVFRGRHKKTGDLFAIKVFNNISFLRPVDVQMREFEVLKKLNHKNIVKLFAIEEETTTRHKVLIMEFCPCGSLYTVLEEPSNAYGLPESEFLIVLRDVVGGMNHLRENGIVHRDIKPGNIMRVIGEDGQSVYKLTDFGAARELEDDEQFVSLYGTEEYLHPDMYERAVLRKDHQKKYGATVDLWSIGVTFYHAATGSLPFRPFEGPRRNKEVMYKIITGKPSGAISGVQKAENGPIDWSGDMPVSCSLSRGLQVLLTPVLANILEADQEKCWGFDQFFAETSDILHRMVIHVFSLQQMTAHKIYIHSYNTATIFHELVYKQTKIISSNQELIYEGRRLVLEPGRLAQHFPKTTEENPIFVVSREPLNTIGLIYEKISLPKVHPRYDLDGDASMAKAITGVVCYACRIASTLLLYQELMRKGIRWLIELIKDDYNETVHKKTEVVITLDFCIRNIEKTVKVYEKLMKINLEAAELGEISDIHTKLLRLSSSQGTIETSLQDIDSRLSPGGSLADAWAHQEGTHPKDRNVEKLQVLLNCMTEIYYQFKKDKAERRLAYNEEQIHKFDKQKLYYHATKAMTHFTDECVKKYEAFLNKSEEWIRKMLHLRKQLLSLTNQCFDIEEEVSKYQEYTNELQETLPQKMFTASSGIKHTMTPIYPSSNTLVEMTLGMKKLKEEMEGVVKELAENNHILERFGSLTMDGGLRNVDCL
How it was run: (§1)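 Phosphorylation of casein or myelin basic protein was counted by P-81 filter capture after 30-45 min reactions stopped with phosphoric acid, with counts normalized to DMSO after background subtraction. ATP was twice Km: 60 μM for TBK1 and 32 μM for IKKε, plus [γ33]ATP. Sf9-expressed His-tag enzymes were used at normal/sensitized levels of 0.1/0.02 μg/ml (TBK1) and 0.1/0.015 μg/ml (IKKε).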

DU4475 cells = assay: Cell growth inhibition assay (CellTiter-Glo), DU4475; format: cell-based; conditions: Homo sapiens, DU-4475; 3-5 days
Experimental: DU4475, COLO205, and OPM2 cells were plated in 96-well plates at 5000 cells/well. The following day test compounds (compounds according to Formula I) were added, maintaining the final DMSO solvent concentration at 0.4%. After the desired incubation time (3-5 days), cell number was assayed using the CellTiter-Glo luminescent cell viability assay (Promega, Inc., Madison, Wis.). Viability was expressed as percent DMSO control after background subtraction.

IKKε = target: T2, IKKε (Homo sapiens, UniProt Q14164); assay: In-vitro IKKε kinase assay ([γ33]ATP filter-plate); format: biochemical; conditions: text bins; read-out: IC50 for inhibition of the kinase activity of IKKε
T2 construct: His-tag; made in house; host or cells: Sf9 insect cells
T2 sequence (Q14164 1-716): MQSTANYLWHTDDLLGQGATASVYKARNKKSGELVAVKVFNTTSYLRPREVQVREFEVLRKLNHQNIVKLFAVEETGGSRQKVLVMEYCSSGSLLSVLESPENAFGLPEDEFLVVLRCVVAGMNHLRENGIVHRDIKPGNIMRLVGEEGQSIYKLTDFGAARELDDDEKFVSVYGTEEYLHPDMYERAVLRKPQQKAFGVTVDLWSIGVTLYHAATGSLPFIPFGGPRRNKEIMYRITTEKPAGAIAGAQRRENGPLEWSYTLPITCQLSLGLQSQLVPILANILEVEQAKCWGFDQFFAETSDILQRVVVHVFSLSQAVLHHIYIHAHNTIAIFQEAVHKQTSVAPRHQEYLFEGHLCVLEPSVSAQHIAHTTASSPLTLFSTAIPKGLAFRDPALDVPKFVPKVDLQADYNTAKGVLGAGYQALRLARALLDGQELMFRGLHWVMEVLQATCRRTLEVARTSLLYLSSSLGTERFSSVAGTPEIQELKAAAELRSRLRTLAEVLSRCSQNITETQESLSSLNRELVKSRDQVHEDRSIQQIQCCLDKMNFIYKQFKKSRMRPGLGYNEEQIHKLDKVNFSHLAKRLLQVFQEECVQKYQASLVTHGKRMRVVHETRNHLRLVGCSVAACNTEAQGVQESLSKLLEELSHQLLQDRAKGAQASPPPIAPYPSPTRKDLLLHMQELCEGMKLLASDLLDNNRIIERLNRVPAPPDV
How it was run: as §1

[1] = tested on: IKKε-mediated phosphorylation of IRF3; assay: In-situ phosphorylation of IRF3 (pIRF3 Ser396 ELISA) in HEK293T cells cotransfected with IRF3 and IKKε; format: cell-based; conditions: Homo sapiens, HEK-293T; HEK293T cells, 20 hours, text bins; read-out: IC50 for inhibition of the in-situ IKKε-mediated phosphorylation of IRF3
How it was run: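 For the IRF3 ELISA, HEK293T cells cotransfected with IRF3 and IKKε were replated at 20,000/well and treated 20 h. Phospho-Ser396 IRF3 was measured by ELISA and normalised to DMSO, with viability checked by CellTiter-Glo. For IRF7, cells transfected with IRF7 and TBK1 were treated overnight, and pSer477/Ser479 IRF7 was detected by Western blot.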

[2] = tested on: secreted RANTES, prostate cancer DU145 cells; assay: ELISA to detect secreted RANTES, DU145 cells; format: cell-based; conditions: Homo sapiens, DU-145; cell system (DU145 or Poly(I:C)-induced MALME-3) not specified; read-out: IC50 for inhibition of the secretion of RANTES
Experimental: Prostate cancer DU145 cells were seeded at 20,000 cells/well in a 96-well tissue culture plate. The following day media was removed and replaced with complete media containing IKKε/TBK1 inhibitor (starting concentration 25 µM, 1:3 dilutions, final DMSO 0.05%). Cells were incubated for 20 hours and culture supernatant used to determine secreted RANTES levels using a commercially available ELISA kit (R & D Systems, Minneapolis, Minn.).

[3] = tested on: RANTES secretion, RAW264.7 cells; assay: RANTES secretion by RAW264.7 cells after nucleic acid agonists (ELISA); format: cell-based, Mouse; conditions: 100 nM
From the text: (§2) Mouse RAW264.7 macrophage-like cells provide a model for macrophage function in tissue culture. To investigate the efficacy of compounds according to Formula I in inhibiting nucleic acid cytosolic receptor pathways RAW264.7 cells were pretreated with a compound according to Formula I (Example Compound 471) and then exposed to various single stranded and double stranded RNA and DNA agonists introduced into the cell. To track IKKε/TBK1 signaling pathway activation, RANTES or IFN-β protein secretion was monitored by ELISA-based assays (R & D systems), such as those described above.
RAW264.7 cells were seeded in 96-well culture plates and allowed to grow overnight. The following day, media was replaced and cells were pretreated with 100 nM Example Compound 471 (0.1% final DMSO concentration). After one hour cells were transfected with Lipofectime LTX reagent (Invitrogen, Carlsbad, Calif.) and one of the following agonists: low molecular weight Poly(I:C) (InvivoGen, San Diego, Calif.) at 10 μg/ml to activate RIG-I; high molecular weight Poly(I:C) (InvivoGen, San Diego, Calif.) at 10 μg/ml to activate MDA5; Poly(dA:dT) (InvivoGen, San Diego, Calif.) at 1 ug/ml; 45-basepair double stranded interferon stimulatory DNA oligo (ISD) at 10 μg/ml (Stetson and Medzhitov; Recognition of cytosolic DNA activates an IRF3-dependent innate immune response; Immunity, 24:93-103, 2006); ssDNA at 10 μg/ml (InvivoGen, San Diego, Calif.), ssRNA at 0.5 μg/ml (InvivoGen, San Diego, Calif.), or salmon sperm genomic DNA (gDNA) (InvivoGen, San Diego, Calif.) at 10 ug/ml to activate DAI, IFI16, and other cytosolic nucleic acid receptors. RANTES (FIG. 5) and IFN-β (FIG. 6) secretion were quantified using ELISA kits (Mouse CCL5/RANTES, R&D Systems, Inc., Minneapolis, Minn. and Mouse IFN-β, Thermo Fisher Scientific, Rockford, Ill.).

[4] = tested on: IFN-β secretion, RAW264.7 cells; assay: IFN-β secretion by RAW264.7 cells after nucleic acid agonists (ELISA); format: cell-based, Mouse; conditions: 100 nM
From the text: as §2
RAW264.7 cells were seeded in 96-well culture plates and allowed to grow overnight. The following day, media was replaced and cells were pretreated with 100 nM Example Compound 471 (0.1% final DMSO concentration). […] RANTES (FIG. 5) and IFN-β (FIG. 6) secretion were quantified using ELISA kits (Mouse CCL5/RANTES, R&D Systems, Inc., Minneapolis, Minn. and Mouse IFN-β, Thermo Fisher Scientific, Rockford, Ill.).

In the case of `COc1ccc(-c2ccnc(Nc3cc(CO)c(OC)c(OC)c3)n2)cc1C#N` [Example 127, 5-(2-{[3-(Hydroxymethyl)-4,5-dimethoxyphenyl]amino}pyrimidin-4-yl)-2-methoxybenzonitrile], the IC50 (TBK1) is reported as < 10 nM, the IC50 (DU4475 cells) is reported as ≤ 10 nM and the IC50 (IKKε) is reported as < 5 nM.

For `COc1cc(-c2ccnc(Nc3ccc(N4CCN(CCO)CC4)cc3)n2)cc(C#N)c1OC1CCOCC1` [compound 446, 5-[2-({4-[4-(2-Hydroxyethyl)piperazin-1-yl]phenyl}amino)pyrimidin-4-yl]-3-methoxy-2-(tetrahydro-2H-pyran-4-yloxy)benzonitrile], the IC50 (TBK1) was < 10 nM, the IC50 (IKKε) was < 5 nM and the IC50 [1] was < 100 nM. For the same compound, the IC50 [2] was < 10 nM.

`CC(=O)NCc1ccc(Nc2nccc(-c3ccc(OC4CCOCC4)c(C#N)c3)n2)cc1` [compound 492, N-[4-({4-[3-cyano-4-(tetrahydro-2H-pyran-4-yloxy)phenyl]pyrimidin-2-yl}amino)benzyl] acetamide] was tested, and the IC50 (TBK1) was < 10 nM, the IC50 (IKKε) was < 5 nM and the IC50 [1] was < 100 nM. For the same compound, the IC50 [2] was < 10 nM.

For `N#Cc1cc(-c2ccnc(Nc3ccc(N4CCOCC4)cc3)n2)ccc1O[C@@H]1CCN(C(=O)CO)C1` [compound 471, 2-{[(3R)-1-(hydroxyacetyl)pyrrolidin-3-yl]oxy}-5-(2-{[4-(morpholin-4-yl)phenyl]amino}pyrimidin-4-yl)benzonitrile], the IC50 (TBK1) was < 10 nM, the IC50 (IKKε) was < 5 nM and the IC50 [1] was < 100 nM. For the same compound, the “induction of RANTES secretion by DNA agonists ISD, ssDNA, poly(dA:dT), gDNA” value [3] was “potently inhibited”, the “induction of RANTES secretion by low and high molecular weight poly(I:C)” value [3] was “modestly inhibited” and the “induction of RANTES secretion by ssRNA agonist” value [3] was “potently inhibited”. For the same compound, the “induction of IFN-β secretion by DNA agonists ISD, ssDNA, poly(dA:dT), gDNA” value [4] was “potently inhibited” and the “induction of IFN-β secretion by low and high molecular weight poly(I:C)” value [4] was “modestly inhibited”.

For `COc1cc(NC(=O)CCSC)cc(Nc2nccc(-c3ccc(OC)c(C#N)c3)n2)c1` [compound 339, N-(3-{[4-(3-Cyano-4-methoxyphenyl)pyrimidin-2-yl]amino}-5-methoxyphenyl)-3-(methylsulfanyl) propanamide], the IC50 (TBK1) was 10 to 100 nM, the IC50 (DU4475 cells) was ≤ 10 nM and the IC50 (IKKε) was 5 to 50 nM.

With `COc1cc(Nc2nccc(-c3ccc(OC4CCOCC4)c(C#N)c3)n2)ccc1C(=O)N(C)CCN(C)C` [compound 505, 4-({4-[3-cyano-4-(tetrahydro-2H-pyran-4-yloxy)phenyl]pyrimidin-2-yl}amino)-N-[2-(dimethylamino)ethyl]-2-mrthoxy-N-methylbenzamide] the IC50 (TBK1) was < 10 nM, the IC50 (IKKε) was < 5 nM and the IC50 [1] was < 100 nM. For the same compound, the IC50 [2] was < 10 nM.

`COCCOCC(=O)Nc1cc(Nc2nccc(-c3ccc(OC)c(C#N)c3)n2)cc(OC)c1` [compound 316, N-(3-{[4-(3-Cyano-4-methoxyphenyl)pyrimidin-2-yl]amino}-5-methoxyphenyl)-2-(2-methoxyethoxy) acetamide] was tested, and the IC50 (DU4475 cells) was ≤ 10 nM and the IC50 (IKKε) was 5 to 50 nM.
